Experimental data published in ChEMBL document CHEMBL1201862, “PubChem BioAssay data set” (2004).
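Interpolation was linear, between the two tested concentrations surrounding the appropriate level; five concentrations were tested over 48 hours in 96-well plates. GI50 marks 50% less growth.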 The source made the active and inactive calls. Rule as the data show it: active = GI50 up to about 1.1 µM and inactive = higher.

Assays:
Assay in all cases: NCI-60 cell line screen, 48 h
[1] = test system: OVCAR-8
[2] = test system: HOP-62
[3] = test system: OVCAR-4
[4] = test system: COLO 205
[5] = test system: A498
[6] = test system: KM12
[7] = test system: SK-OV-3
[8] = test system: M14
[9] = test system: OVCAR-5
[10] = test system: BT-549
[11] = test system: SK-MEL-2
[12] = test system: HCT-116
[13] = test system: UO-31
[14] = test system: HT-29
[15] = test system: PC-3
[16] = test system: SNB-19
[17] = test system: MCF7
[18] = test system: T47D
[19] = test system: Hs-578T
[20] = test system: HL-60

| SMILES | GI50 [1] | GI50 [2] | GI50 [3] | GI50 [4] | GI50 [5] | GI50 [6] | GI50 [7] | GI50 [8] | GI50 [9] | GI50 [10] | GI50 [11] | GI50 [12] | GI50 [13] | GI50 [14] | GI50 [15] | GI50 [16] | GI50 [17] | GI50 [18] | GI50 [19] | GI50 [20] |
| --- | --- | --- | --- | --- | --- | --- | --- | --- | --- | --- | --- | --- | --- | --- | --- | --- | --- | --- | --- | --- |
| C#C[C@]1(O)CC[C@H]2[C@@H]3CCC4=C/C(=N/OCCN(C)C)CC[C@]4(C)[C@H]3CC[C@@]21C | 49.7 µM (inactive) | 29.9 µM (inactive) | > 100 µM (inactive) | 26.7 µM (inactive) | 41.4 µM (inactive) | 52 µM (inactive) | 40.1 µM (inactive) | 15 µM (inactive) | 56.8 µM (inactive) | 65.9 µM (inactive) | 31.7 µM (inactive) | 25.6 µM (inactive) | 62.5 µM (inactive) | 6.78 µM (inactive) | 27.7 µM (inactive) | 27.9 µM (inactive) | 25.1 µM (inactive) | > 100 µM (inactive) | 26.9 µM (inactive) | – |
| Cc1ccc(-c2cc(-c3ccc(Cl)cc3)nc(/N=C3\C(=O)N(CN4CCOCC4)c4ccccc43)n2)cc1 | 19.5 µM (inactive) | 28 µM (inactive) | 28.7 µM (inactive) | 26 µM (inactive) | 18.8 µM (inactive) | 22.4 µM (inactive) | 31.1 µM (inactive) | 26.2 µM (inactive) | 21.6 µM (inactive) | 27.5 µM (inactive) | 18.3 µM (inactive) | 24.9 µM (inactive) | – | 20.1 µM (inactive) | 26.5 µM (inactive) | 15.1 µM (inactive) | 19 µM (inactive) | 32.9 µM (inactive) | 22.9 µM (inactive) | 9.02 µM (inactive) |
| CC(=O)C(C(C)=O)[C@H]1OC(C)(C)O[C@H]1[C@H]1COC(C)(C)O1 | 34.7 µM (inactive) | 23.4 µM (inactive) | 40.6 µM (inactive) | 17.7 µM (inactive) | > 100 µM (inactive) | 35.7 µM (inactive) | 29.2 µM (inactive) | 44.3 µM (inactive) | > 100 µM (inactive) | 28.4 µM (inactive) | 22.6 µM (inactive) | 45.2 µM (inactive) | 49.8 µM (inactive) | 33.6 µM (inactive) | 24.5 µM (inactive) | 41.6 µM (inactive) | 35.6 µM (inactive) | 89.1 µM (inactive) | 44.8 µM (inactive) | – |
| CN1CCOC1c1ccccc1O (configuration not stated) | > 100 µM (inactive) | > 100 µM (inactive) | > 100 µM (inactive) | > 100 µM (inactive) | > 100 µM (inactive) | > 100 µM (inactive) | > 100 µM (inactive) | > 100 µM (inactive) | > 100 µM (inactive) | > 100 µM (inactive) | > 100 µM (inactive) | > 100 µM (inactive) | > 100 µM (inactive) | > 100 µM (inactive) | > 100 µM (inactive) | > 100 µM (inactive) | > 100 µM (inactive) | > 100 µM (inactive) | > 100 µM (inactive) | – |
| CCC1(C)C=Cc2c(cc(OC)c3c(=O)c4ccccc4n(C)c23)O1 (configuration not stated) | > 10 µM (inactive) | > 10 µM (inactive) | 9.51 µM (inactive) | > 10 µM (inactive) | > 10 µM (inactive) | 1.5 µM (inactive) | > 10 µM (inactive) | > 10 µM (inactive) | > 10 µM (inactive) | 5.4 µM (inactive) | > 10 µM (inactive) | > 10 µM (inactive) | 1.15 µM (inactive) | 7.69 µM (inactive) | > 10 µM (inactive) | > 10 µM (inactive) | 0.785 µM (active) | 4.99 µM (inactive) | 5.6 µM (inactive) | – |
| Cc1ccc(S(=O)(=O)NC(=O)NC(CCC(N)=O)C(=O)O)cc1 (configuration not stated) | > 100 µM (inactive) | > 100 µM (inactive) | > 100 µM (inactive) | > 100 µM (inactive) | – | > 100 µM (inactive) | > 100 µM (inactive) | > 100 µM (inactive) | > 100 µM (inactive) | > 100 µM (inactive) | > 100 µM (inactive) | > 100 µM (inactive) | > 100 µM (inactive) | > 100 µM (inactive) | > 100 µM (inactive) | > 100 µM (inactive) | > 100 µM (inactive) | > 100 µM (inactive) | > 100 µM (inactive) | 69.5 µM (inactive) |
| CON(C)C(=O)C(Cc1ccccc1)NC(=O)OC(C)(C)C (configuration not stated) | > 100 µM (inactive) | > 100 µM (inactive) | – | > 100 µM (inactive) | > 100 µM (inactive) | > 100 µM (inactive) | > 100 µM (inactive) | > 100 µM (inactive) | > 100 µM (inactive) | > 100 µM (inactive) | – | > 100 µM (inactive) | > 100 µM (inactive) | > 100 µM (inactive) | > 100 µM (inactive) | > 100 µM (inactive) | > 100 µM (inactive) | > 100 µM (inactive) | > 100 µM (inactive) | > 100 µM (inactive) |
